Test results published in patent US10676477B2, “Factor XIa macrocycle inhibitors bearing a non-aromatic P2' group” (BRISTOL-MYERS SQUIBB COMPANY, priority 2015, dated 2020).
Structures can show the parent of a compound that is named as a salt.

How the values were obtained:
[1] = biological target: T1, human Factor XIa (Homo sapiens, UniProt P03951); experiment: Factor XIa enzyme inhibition assay (chromogenic substrate S-2366), Ki; assay type: biochemical; conditions: purified human Factor XIa, substrate S-2366, pH 7.4
T1 construct: purchased Haematologic Technologies
Method: (§1) The effectiveness of compounds of the present invention as inhibitors of the coagulation Factors XIa, VIIa, IXa, Xa, XIIa, plasma kallikrein chymotrypsin, trypsin, or thrombin, can be determined using a relevant purified serine protease, respectively, and an appropriate synthetic substrate. The rate of hydrolysis of the chromogenic or fluorogenic substrate by the relevant serine protease was measured both in the absence and presence of compounds of the present invention. […] A decrease in the rate of absorbance or fluorescence change in the presence of inhibitor is indicative of enzyme inhibition. Such methods are known to one skilled in the art. The results of this assay are expressed as the inhibitory constant, Ki.
Factor XIa determinations were made in 50 mM HEPES buffer at pH 7.4 containing 145 mM NaCl, 5 mM KCl, and 0.1% PEG 8000 (polyethylene glycol; JT Baker or Fisher Scientific). Determinations were made using purified human Factor XIa at a final concentration of 25-200 pM (Haematologic Technologies) and the synthetic substrate S-2366 (pyroGlu-Pro-Arg-pNA; CHROMOGENIX® or AnaSpec) at a concentration of 0.0002-0.001 M.
(§2) The Michaelis constant, Km, for substrate hydrolysis by each protease, was determined at 25° C. or 37° C. in the absence of inhibitor. Values of Ki were determined by allowing the protease to react with the substrate in the presence of the inhibitor. Reactions were allowed to go for periods of 20-180 minutes (depending on the protease) and the velocities (rate of absorbance or fluorescence change versus time) were measured. The following relationships were used to calculate Ki values: (Vmax*S)/(Km+S) (vo−vs)/vs=I/(Ki*(1+S/Km)) for a competitive inhibitor with one binding site; or vs/vo=A+((B−A)/(1+(IC50/(I)^n)); and Ki=IC50/(1+S/Km) for a competitive inhibitor where: […]

[2] = biological target: T2, human plasma kallikrein (Homo sapiens, UniProt P03952); experiment: Plasma kallikrein enzyme inhibition assay (chromogenic substrate S-2302), Ki; assay type: biochemical; conditions: purified human plasma kallikrein, substrate S-2302, pH 7.5
T2 construct: purchased Enzyme Research Laboratories
Method: as §1
Plasma kallikrein determinations were made in 0.1 M sodium phosphate buffer at a pH of 7.5 containing 0.1-0.2 M sodium chloride and 0.5% PEG 8000. Determinations were made using purified human plasma kallikrein (Enzyme Research Laboratories) at a final assay concentration of 200 pM and the synthetic substrate S-2302 (H-(D)-Pro-Phe-Arg-pNA; CHROMOGENIX®) at a concentration of 0.00008-0.0004 M.
as §2

T2 sequence (P03952 391-638 limits assumed): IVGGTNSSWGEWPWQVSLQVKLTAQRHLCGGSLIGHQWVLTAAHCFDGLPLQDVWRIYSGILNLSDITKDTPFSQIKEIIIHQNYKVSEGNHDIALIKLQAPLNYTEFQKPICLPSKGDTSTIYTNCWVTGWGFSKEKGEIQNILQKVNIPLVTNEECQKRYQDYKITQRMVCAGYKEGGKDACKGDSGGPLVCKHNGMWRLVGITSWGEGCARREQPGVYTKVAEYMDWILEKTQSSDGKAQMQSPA
T2 sequence (P03952 20-390 partner limits assumed): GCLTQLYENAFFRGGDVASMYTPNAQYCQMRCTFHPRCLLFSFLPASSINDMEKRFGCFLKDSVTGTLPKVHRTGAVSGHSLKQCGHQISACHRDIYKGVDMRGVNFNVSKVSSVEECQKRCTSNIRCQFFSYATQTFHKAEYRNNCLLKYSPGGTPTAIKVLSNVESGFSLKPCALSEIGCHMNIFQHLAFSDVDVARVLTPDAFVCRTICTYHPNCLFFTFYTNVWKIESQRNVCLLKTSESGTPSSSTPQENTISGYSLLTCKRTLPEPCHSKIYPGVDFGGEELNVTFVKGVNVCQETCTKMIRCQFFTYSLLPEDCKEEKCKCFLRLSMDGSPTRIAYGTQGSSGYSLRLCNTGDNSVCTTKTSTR
T1 sequence (P03951 388-625 limits assumed): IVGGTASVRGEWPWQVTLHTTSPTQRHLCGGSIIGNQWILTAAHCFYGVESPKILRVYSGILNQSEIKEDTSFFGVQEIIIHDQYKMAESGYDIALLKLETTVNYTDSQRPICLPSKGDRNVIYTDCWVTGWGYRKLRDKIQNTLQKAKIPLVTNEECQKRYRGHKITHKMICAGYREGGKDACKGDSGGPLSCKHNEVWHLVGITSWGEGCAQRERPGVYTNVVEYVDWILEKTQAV
T1 sequence (P03951 19-387 partner limits assumed): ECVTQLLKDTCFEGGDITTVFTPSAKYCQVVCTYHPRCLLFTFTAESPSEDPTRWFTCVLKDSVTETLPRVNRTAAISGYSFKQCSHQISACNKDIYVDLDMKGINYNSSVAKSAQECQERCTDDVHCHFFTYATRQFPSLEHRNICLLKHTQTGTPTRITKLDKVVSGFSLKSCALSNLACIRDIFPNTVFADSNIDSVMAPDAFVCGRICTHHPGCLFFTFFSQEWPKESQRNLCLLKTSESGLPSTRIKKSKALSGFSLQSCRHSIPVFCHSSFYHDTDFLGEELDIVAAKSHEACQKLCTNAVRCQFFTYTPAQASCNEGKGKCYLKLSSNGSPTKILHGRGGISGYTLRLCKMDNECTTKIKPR

Row | SMILES | Ki [1] [nM] | Ki [2] [µM]
1 | CC(C)(C)OC(=O)N1CCN2c3cccc(c3)[C@@H](n3cnc(-c4cc(Cl)ccc4-n4cc(Cl)nn4)cc3=O)CCCCCNC(=O)[C@@H]2C1 [Example 1, tert-butyl (7S,15S)-15-{4-[5-chloro-2-(4-chloro-1H-1,2,3-triazol-1-yl)phenyl]-6-oxo-1,6-dihydropyrimidin-1-yl}-8-oxo-2,5,9-triazatricyclo[14.3.1.0^2,7]icosa-1(20),16,18-triene-5-carboxylate] | 955 | 3.47
2 | O=C1NCCCCC[C@H](n2cnc(-c3cc(Cl)ccc3-n3cc(Cl)nn3)cc2=O)c2cccc(c2)N2CCNC[C@@H]12 [Example 2, (7S,15S)-15-{4-[5-chloro-2-(4-chloro-1H-1,2,3-triazol-1-yl)phenyl]-6-oxo-1,6-dihydropyrimidin-1-yl}-2,5,9-triazatricyclo[14.3.1.0^2,7]icosa-1(20),16,18-trien-8-one hydrochloride] | 542 | 7.29
3 | COC(=O)N1CCN2c3cccc(c3)[C@@H](n3cnc(-c4cc(Cl)ccc4-n4cc(Cl)nn4)cc3=O)CCCCCNC(=O)[C@@H]2C1 [Example 3, methyl (7S,15S)-15-{4-[5-chloro-2-(4-chloro-1H-1,2,3-triazol-1-yl)phenyl]-6-oxo-1,6-dihydropyrimidin-1-yl}-8-oxo-2,5,9-triazatricyclo[14.3.1.0^2,7]icosa-1(20),16,18-triene-5-carboxylate] | 643 | 4.11
4 | O=C1NCCCCC[C@H](n2cnc(-c3cc(Cl)ccc3-n3cc(Cl)nn3)cc2=O)c2cccc(c2)N2C(=O)CNC[C@H]12 [Example 7, (7R,15S)-15-{4-[5-chloro-2-(4-chloro-1H-1,2,3-triazol-1-yl)phenyl]-6-oxo-1,6-dihydropyrimidin-1-yl}-2,5,9-triazatricyclo[14.3.1.0^2,7]icosa-1(20),16,18-triene-3,8-dione hydrochloride] | 97 | 4.78

Continued by falling Ki [1], values first:

Row | Ki [1] [nM] | Ki [2] [µM] | SMILES
5 | 9020 | 3.14 | CC(C)(C)OC(=O)N1CC(=O)N2c3cccc(c3)[C@@H](n3cnc(-c4cc(Cl)ccc4-n4cc(Cl)nn4)cc3=O)CCCCCNC(=O)[C@@H]2C1 [Example 4, tert-butyl (7S,15S)-15-{4-[5-chloro-2-(4-chloro-1H-1,2,3-triazol-1-yl)phenyl]-6-oxo-1,6-dihydropyrimidin-1-yl}-3,8-dioxo-2,5,9-triazatricyclo[14.3.1.0^2,7]icosa-1(20),16,18-triene-5-carboxylate]
6 | 6000 | 13 | O=C1NCCCCC[C@H](n2cnc(-c3cc(Cl)ccc3-n3cc(Cl)nn3)cc2=O)c2cccc(c2)N2C(=O)CNC[C@@H]12 [Example 6, (7S,15S)-15-{4-[5-chloro-2-(4-chloro-1H-1,2,3-triazol-1-yl)phenyl]-6-oxo-1,6-dihydropyrimidin-1-yl}-2,5,9-triazatricyclo[14.3.1.0^2,7]icosa-1(20),16,18-triene-3,8-dione hydrochloride]
7 | 276 | 6 | CC(C)(C)OC(=O)N1CC(=O)N2c3cccc(c3)[C@@H](n3cnc(-c4cc(Cl)ccc4-n4cc(Cl)nn4)cc3=O)CCCCCNC(=O)[C@H]2C1 [Example 5, tert-butyl (7R,15S)-15-{4-[5-chloro-2-(4-chloro-1H-1,2,3-triazol-1-yl)phenyl]-6-oxo-1,6-dihydropyrimidin-1-yl}-3,8-dioxo-2,5,9-triazatricyclo[14.3.1.0^2,7]icosa-1(20),16,18-triene-5-carboxylate]
8 | 21 | 1.09 | CC(C)(C)OC(=O)N1CCN2c3cccc(c3)[C@@H](n3cnc(-c4cc(Cl)ccc4-n4cc(Cl)nn4)cc3=O)CCCCCNC(=O)[C@H]2C1 [Example 8, tert-butyl (7R,15S)-15-{4-[5-chloro-2-(4-chloro-1H-1,2,3-triazol-1-yl)phenyl]-6-oxo-1,6-dihydropyrimidin-1-yl}-8-oxo-2,5,9-triazatricyclo[14.3.1.0^2,7]icosa-1(20),16,18-triene-5-carboxylate]
